Reference: patent US12286437B2, “Cardiac sarcomere inhibitors” (Cytokinetics, Inc., priority 2021, dated 2025)

Experiments:
[1] = Mouse single dose pharmacokinetics; type: in vivo, C57BL/6 mice; conditions: male, C57BL/6, plasma, 0.5 mg/kg, IV; for Vd: read-out: Vss; for half-life: read-out: t½ (converted)
Protocol: Male C57BL/6 mice (18-25 g, 6-8 weeks old) were obtained from Zhejiang Vital River Laboratory Animal Technology Co., Ltd. All animals for IV administration had free access to food and water. The IV dosing was performed through tail vein. The IV dose solution for the Test Articles was prepared in 10% DMA/20% PG/70% HPβCD solution (40% w/v aqueous HPβCD) at a concentration of 0.1 mg/mL. The oral dosing suspension was prepared by suspending Test Article in 0.5% HPMC/0.1% Tween 80 in water at a concentration 0.2 mg/mL. Concentrations of IV and PO doses were measured at the end of the study. Pharmacokinetic (PK) parameters were calculated using the nominal dose values if the measured values were within 20% of the nominal values. A group of 15 mice received the IV dose where the volume was 5 mL/kg. Another group of 15 mice received by oral gavage of Test Article at 1 mg/kg. The oral dose volume was 5 mL/kg. Sparse blood samples were collected from groups of three mice via retro-orbital bleeding, placed into a K2EDTA microtainer tube and maintained on ice until centrifugation to obtain plasma. Each designated group of mice were bled at two-time points. The time points were predose (PO only), 5 (IV only), 15, 30 minutes, 1, 2, 4, 6, 8 and 24 hours postdose. Blood samples were centrifuged and the collected plasma was stored at −80° C. until analysis. Plasma samples were analyzed for Test Article concentrations using an LC/MS/MS method. Briefly, a 50 μL aliquot of each plasma sample was mixed with 100 μL of acetonitrile that contained an internal standard (IS). The mixture was vortexed and centrifuged. Ten (10) μL of the resulting solution was injected onto a reverse-phase C18 column and the resultant peaks detected on a LC/MS/MS equipped with a turbo ionspray ionization source. Sample concentrations below the limit of quantification (BLQ) were treated as zero for PK calculations. Composite PK parameters were estimated from a maximum of two sampling points per mouse and three mice per sampling point and the sparse data option of WinNonlin was used for noncompartmental analysis of the concentration-time data (Phoenix WinNonLin software, version 64; Pharsight, Mountain View, CA). The elimination rate constant (k) was calculated as the absolute value of the slope of the linear regression of logarithm of the concentration versus time for the last three data points of the concentration-time profiles. Apparent elimination half-life (t1/2) values were calculated as ln(2)/k. Area under the concentration-time curve (AUC) values were estimated using linear trapezoidal method. AUCt values were calculated from the dosing time to the last measurable concentration. AUC∞ values were calculated as the sum of the corresponding AUCt and the ratio of the last detectable concentration divided by k. Plasma clearance (CL) was calculated from Dose/AUC∞. Mean resident time (MRT) was estimated by moment analysis. Volume of distribution at steady state (Vss) was calculated from MRT∞×CL. Maximum concentration (Cmax) and time to reach Cmax (tmax) were recorded as observed. Bioavailability was calculated dAUC∞,po/dAUC∞,iv×100% where dAUC was the dose normalized AUC value. Data for compounds tested are provided in Table B. Compounds tested were prepared in accordance with the synthetic procedures described herein.

[2] = Rat single dose pharmacokinetics; type: in vivo, Sprague Dawley rats; conditions: male, Sprague Dawley, plasma, IV; for Vd: read-out: Vss
Protocol: Male Sprague Dawley rats were obtained from Zhejiang Vital River Laboratory Animal Technology Co., Ltd. The animals in IV group had free access to water and food. The animals in PO group were fasted overnight before dosing and provided with food 2 hours post dosing. The IV dose solution was prepared in 10% DMA/50% PG/40% HPβCD solution (40% w/v aqueous HPβCD) at a concentration of 1 mg/mL. The oral dosing suspension was prepared by suspending Test Article in 0.5% HPMC/0.1% Tween 80 in water at a concentration 0.2 mg/mL. Concentrations of IV and PO doses were measured at the end of the study. Pharmacokinetic parameters were calculated using the nominal dose values if the measured values were within 20% of the nominal values. Three rats were dosed IV via a bolus injection via caudal vein. Three rats per dose group were dosed by oral gavage. Blood samples were collected from the jugular vein cannula at predose, 5 (IV only), 15, 30 minutes, and 1, 2, 4, 6, and 24 hours post-dose. Blood volumes were replaced with an equal amount of sterile 0.9% saline. Blood samples were centrifuged and the collected plasma was stored at −80° C. for subsequent analysis. Plasma samples were analyzed for Test Article concentrations using a LC/MS/MS method. Briefly, a 50 μL aliquot of each plasma sample was mixed with 100 μL of acetonitrile that contained an internal standard. The mixture was vortexed and centrifuged. Ten (10) […] of the resulting solution was injected onto a reverse-phase C18 column and the resultant peaks detected on a LC/MS/MS equipped with a turbo ionspray ionization source. Sample concentrations below the limit of quantification (BLQ) were treated as zero for pharmacokinetic calculations. Pharmacokinetic parameters were estimated from individual animals using noncompartmental analysis of the concentration-time data (Phoenix WinNonLin software, version 64; Pharsight, Mountain View, CA). The elimination rate constant (k) was calculated as the absolute value of the slope of the linear regression of logarithm (log) of the concentration versus time for the last three data points of the concentration-time profiles. Apparent elimination half-life (t1/2) values were calculated as ln(2)/k. Area under the concentration-time curve (AUC) values were estimated using linear trapezoidal method. AUCt values were calculated from the dosing time to the last measurable concentration. AUC∞ values were calculated as the sum of the corresponding AUCt and the ratio of the last detectable concentration divided by k (AUCt-∞). Plasma clearance (CL) was calculated from Dose/AUC∞. Mean resident time (MRT) was estimated by moment analysis. Volume of distribution at steady state (Vss) was calculated from MRT∞×CL. Maximum concentration (Cmax) and time to reach Cmax (tmax) were recorded as observed. Bioavailability was calculated from the ratio of dose normalized AUC∞,po of individual rats/mean dAUC∞,iv×100% where dAUC was the dose normalized AUC value. Compounds tested were prepared in accordance with the synthetic procedures described herein.

[3] = Monkey cassette dosing pharmacokinetics; type: in vivo; conditions: IV; for clearance / Vd: male, plasma; for Vd: read-out: Vss

| Structure (SMILES) | clearance [1] | Vd [1] | half-life [1] | clearance [2] | half-life [2] | Vd [2] | t l/2 [3] | clearance [3] | Vd [3] |
| --- | --- | --- | --- | --- | --- | --- | --- | --- | --- |
| CC(C)N1CC(=O)N(Cc2ccc(Cl)c(F)c2)C2(CN(c3cccnn3)C2)C1=O [Compound 8, 5-(4-chloro-3-fluorobenzyl)-8-isopropyl-2-(pyridazin-3-yl)-2,5,8-triazaspiro[3.5]nonane-6,9-dione] | 132 mL/min/kg | 5.14 L/kg | 0.66 h | 79.9 mL/min/kg | 1.2 h | 5.22 L/kg | 3.72 h | 20.2 mL/min/kg | 4.76 L/kg |
| Cc1cc(CN2C(=O)CN([C@H]3CC[C@H](C)CC3)C(=O)C23CN(C(N)=O)C3)ccc1F [Compound 6, 5-(4-fluoro-3-methylbenzyl)-8-((1r,4r)-4-methylcyclohexyl)-6,9-dioxo-2,5,8-triazaspiro[3.5]nonane-2-carboxamide] | 28.2 mL/min/kg | 2.52 L/kg | 1.27 h | 76.6 mL/min/kg | 2 h | 10.1 L/kg | 8.07 h | 12.3 mL/min/kg | 6.29 L/kg |
| CC(C)N1CC(=O)N(Cc2ccc(C(F)(F)F)cc2)C2(CN(c3cccnn3)C2)C1=O [Compound 13, 8-isopropyl-2-(pyridazin-3-yl)-5-(4-(trifluoromethyl)benzyl)-2,5,8-triazaspiro[3.5]nonane-6,9-dione] | 101 mL/min/kg | 2.25 L/kg | 0.46 h | 38.9 mL/min/kg | 0.95 h | 2.17 L/kg | 1.83 h | 21.4 mL/min/kg | 3.15 L/kg |
| C[C@H]1CC[C@H](N2CC(=O)N(Cc3ccc(F)c(F)c3)C3(CN(C=O)C3)C2=O)CC1 [Compound 4, 5-(3,4-difluorobenzyl)-8-((1r,4r)-4-methylcyclohexyl)-6,9-dioxo-2,5,8-triazaspiro[3.5]nonane-2-carbaldehyde] |  |  |  |  |  |  | 8.69 h |  |  |

Second part, the compound after the results:

| clearance [1] | Vd [1] | half-life [1] | clearance [2] | half-life [2] | Vd [2] | t l/2 [3] | clearance [3] | Vd [3] | Structure (SMILES) |
| --- | --- | --- | --- | --- | --- | --- | --- | --- | --- |
| 18.9 mL/min/kg | 4.08 L/kg | 3.08 h | 71.1 mL/min/kg | 3.04 h | 13.7 L/kg | 8.2 h | 19 mL/min/kg | 10.2 L/kg | C[C@H]1CC[C@H](N2CC(=O)N(Cc3ccc(F)c(F)c3)C3(CN(C(N)=O)C3)C2=O)CC1 [Compound 5, 5-(3,4-difluorobenzyl)-8-((1r,4r)-4-methylcyclohexyl)-6,9-dioxo-2,5,8-triazaspiro[3.5]nonane-2-carboxamide] |
| 15 mL/min/kg | 2.95 L/kg | 2.5 h | 61.9 mL/min/kg | 2.1 h | 12.6 L/kg | 12.5 h | 10.2 mL/min/kg | 9.12 L/kg | C[C@H]1CC[C@H](N2CC(=O)N(Cc3ccc(F)c(Cl)c3)C3(CN(C(N)=O)C3)C2=O)CC1 [Compound 7, 5-(3-chloro-4-fluorobenzyl)-8-((1r,4r)-4-methylcyclohexyl)-6,9-dioxo-2,5,8-triazaspiro[3.5]nonane-2-carboxamide] |
| 21 mL/min/kg | 2.95 L/kg | 1.18 h | 63.6 mL/min/kg | 2.15 h | 9.48 L/kg | 8.04 h | 12.5 mL/min/kg | 10.2 L/kg | C[C@H]1CC[C@H](N2CC(=O)N(Cc3ccc(Cl)cc3)C3(CN(C(N)=O)C3)C2=O)CC1 [Compound 18, 5-(4-chlorobenzyl)-8-((1r,4r)-4-methylcyclohexyl)-6,9-dioxo-2,5,8-triazaspiro[3.5]nonane-2-carboxamide] |
